# Measured values published in patent US8299056B2 (Signal Pharmaceuticals, LLC, priority 2008, dated 2012).
# Molecular target: T1, Syk (Homo sapiens, UniProt P43405)
# T1 construct: purchased Carna Biosciences
# Assay: Syk HTRF assay
# Type: biochemical
# Settings: IC50 activity level, read-out: Activity Level
# Summary of the method: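 HTRF kinase assay in HEPES pH 7.6 buffer with MgCl2, DTT and Triton X100; start mix of 87.5 μM ATP and 80 nM biotinylated peptide, 1 h at room temperature. EDTA stop, then Eu-anti-phosphotyrosine/streptavidin-DyLight 647 detection, read as 665/615 nm emission ratio.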
row,SMILES,IC50 [nM]
1,"NCCCc1cccc2nc(Nc3ccccc3)nn12 [Example 498, 5-(3-aminopropyl)-N-phenyl-[1,2,4]triazolo[1,5-a]pyridin-2-amine]",1000 to 10000
2,"Nc1noc2ccc(-c3cccc4nc(Nc5ccccc5)nn34)cc12 [Example 457, 5-(2-(phenylamino)-[1,2,4]triazolo[1,5-a]pyridin-5-yl)benzo[d]isoxazol-3-amine]",0.005 to 250
3,"c1cc(NC2CCCNC2)n2nc(Nc3ccc(N4CCOCC4)nc3)nc2c1 (stereo in doubt) [Example 411, (S)-N^2-(6-morpholinopyridin-3-yl)-N^5-(piperidin-3-yl)-[1,2,4]triazolo[1,5-a]pyridine-2,5-diamine]",0.005 to 250
4,"COCc1nc2ccc(-c3cccc4nc(Nc5ccc(C(F)(F)F)cc5)nn34)cc2[nH]1 [Example 401, 5-(2-(methoxymethyl)-1H-benzo[d]imidazol-6-yl)-N-(4-(trifluoromethyl)phenyl)-[1,2,4]triazolo[1,5-a]pyridin-2-amine]",0.005 to 250
5,"OCCNc1cc(-c2cccc3nc(Nc4ccccc4)nn23)ccn1 [Example 443, 2-(4-(2-(phenylamino)-[1,2,4]triazolo[1,5-a]pyridin-5-yl)pyridin-2-ylamino)ethanol]",0.005 to 250
6,Cc1cc(Nc2nc3cccc(N[C@H]4CC[C@@H](O)CC4)n3n2)cc2c1CC(=O)N2C [Example 556],0.005 to 250

# Same assay, conditions: activity levels A-D, read-out: Activity Level (IC50 in the Syk HTRF assay)
row,SMILES,IC50 [nM]
1,"Cc1n[nH]c2cc(Nc3nc4cccc(N[C@H]5CCCC5O)n4n3)ccc12 (stereo in doubt) [Example 212, (1S,2S)-2-(2-(3-methyl-1H-indazol-6-ylamino)-[1,2,4]triazolo[1,5-a]pyridin-5-ylamino)cyclopentanol]",0.005 to 250
2,"O[C@H]1CC[C@@H](Nc2cccc3nc(Nc4ccccn4)nn23)CC1 [Example 349, cis-4-(2-(pyridin-2-ylamino)-[1,2,4]triazolo[1,5-a]pyridin-5-ylamino)cyclohexanol]",1000 to 10000
3,"Cc1n[nH]c2cc(Nc3nc4cccc(C[C@H]5CC[C@H](O)CC5)n4n3)ccc12 (stereo in doubt) [Example 240, trans-4-((2-(3-methyl-1H-indazol-6-ylamino)-[1,2,4]triazolo[1,5-a]pyridin-5-yl)methyl)cyclohexanol]",0.005 to 250
4,"O[C@H]1CC[C@@H](Nc2cccc3nc(Nc4cccnc4F)nn23)CC1 [Example 322, cis-4-(2-(2-fluoropyridin-3-ylamino)-[1,2,4]triazolo[1,5-a]pyridin-5-ylamino)cyclohexanol]",1000 to 10000
5,"OCCNc1cc(-c2cccc3nc(Nc4ccc(C(F)(F)F)cc4)nn23)ccn1 [Example 312, 2-(4-(2-(4-(trifluoromethyl)phenylamino)-[1,2,4]triazolo[1,5-a]pyridin-5-yl)pyridin-2-ylamino)ethanol]",0.005 to 250
6,"CNC(=O)c1ccc(Nc2nc3cccc(CC(O)C4CCNCC4)n3n2)cc1 (stereo not shown) [Example 306, 4-(5-(2-hydroxy-2-(piperidin-4-yl)ethyl)-[1,2,4]triazolo[1,5-a]pyridin-2-ylamino)-N-methylbenzamide]",1000 to 10000
7,"OC[C@@H]1CCCN1Cc1cccc2nc(Nc3ccc(C(F)(F)F)cc3)nn12 [Example 271, (S)-(1-((2-(4-(trifluoromethyl)phenylamino)-[1,2,4]triazolo[1,5-a]pyridin-5-yl)methyl)pyrrolidin-2-yl)methanol]",1000 to 10000
8,"Cc1cc(Nc2nc3cccc(N[C@H]4CC[C@@H](O)CC4)n3n2)cc(C)n1 [Example 261, cis-4-(2-(2,6-dimethylpyridin-4-ylamino)-[1,2,4]triazolo[1,5-a]pyridin-5-ylamino)cyclohexanol]",500 to 1000
9,"O[C@H]1CCCN(c2cccc3nc(Nc4ccc(C(F)(F)F)cc4)nn23)C1 [Example 310, (S)-1-(2-(4-(trifluoromethyl)phenylamino)-[1,2,4]triazolo[1,5-a]pyridin-5-yl)piperidin-3-ol]",250 to 500
10,"O[C@H]1CC[C@@H](Nc2cccc3nc(Nc4ccnc(OCCN5CCCC5)c4)nn23)CC1 [Example 293, cis-4-(2-(2-(2-(pyrrolidiun-1-yl)ethoxy)pyridin-4-ylamino)-[1,2,4]triazolo[1,5-a]pyridin-5-ylamino)cyclohexanol]",500 to 1000
11,"C[C@H](NCc1cccc2nc(Nc3ccc(C(F)(F)F)cc3)nn12)C(N)=O [Example 222, (S)-2-((2-(4-(trifluoromethyl)phenylamino)-[1,2,4]triazolo[1,5-a]pyridin-5-yl)methylamino)propanamide]",1000 to 10000
12,"O[C@@H]1CCC[C@@H](Nc2cccc3nc(Nc4ccc(C(F)(F)F)cc4)nn23)C1 (single isomer, unassigned; enantiomer 2) [Example 224, cis-3-(2-(4-(trifluoromethyl)phenylamino)-[1,2,4]triazolo[1,5-a]pyridin-5-ylamino)cyclohexanol (enantiomer 2)]",1000 to 10000
13,"O[C@H]1CCC[C@H]1Nc1cccc2nc(Nc3ccc(C(F)(F)F)cc3)nn12 (stereo in doubt) [Example 376, (1S,2R)-2-(2-(4-(trifluoromethyl)phenylamino)-[1,2,4]triazolo[1,5-a]pyridin-5-ylamino)cyclopentanol]",1000 to 10000

# Same assay, conditions: read-out: Activity Level (Syk HTRF assay IC50)
row,SMILES,IC50 [nM]
1,"c1ccc(-c2cccc3nc(Nc4ccc(N5CCOCC5)nc4)nn23)cc1 [compound 41, N-(6-morpholinopyridin-3-yl)-5-phenyl-[1,2,4]triazolo[1,5-a]pyridin-2-amine]",0.005 to 250
2,"CNC(=O)c1ccc(Nc2nc3cccc(-c4cccc(O)c4)n3n2)cc1 [compound 36, 4-(5-(3-hydroxyphenyl)-[1,2,4]triazolo[1,5-a]pyridin-2-ylamino)-N-methylbenzamide]",0.005 to 250
3,"Cn1ncc2cc(Nc3nc4cccc(N[C@H]5CC[C@@H](O)CC5)n4n3)cnc21 [Example 139, cis-4-(2-(1-methyl-1H-pyrazolo[3,4-b]pyridin-5-ylamino)-[1,2,4]triazolo[1,5-a]pyridin-5-ylamino)cyclohexanol]",0.005 to 250
4,FC(F)(F)c1n[nH]c2cc(Nc3nc4cccc(NC5CCOCC5)n4n3)ccc12 [compound 129],250 to 500
5,"Cc1nc2cc(Nc3nc4cccc(-c5ccccc5)n4n3)ccc2[nH]1 [compound 46, N-(2-methyl-1H-benzo[d]imidazol-5-yl)-5-phenyl-[1,2,4]triazolo[1,5-a]pyridin-2-amine]",0.005 to 250
6,"c1ccc(-c2cccc3nc(Nc4ccc5cnoc5c4)nn23)cc1 [compound 48, N-(5-phenyl-[1,2,4]triazolo[1,5-a]pyridin-2-yl)benzo[d]isoxazol-6-amine]",1000 to 10000
7,"Cc1n[nH]c2cc(Nc3nc4cccc(NC[C@H]5CC[C@H](O)C5)n4n3)ccc12 [Example 181, (1S,3S)-3-((2-(3-methyl-1H-indazol-6-ylamino)-[1,2,4]triazolo[1,5-a]pyridin-5-ylamino)methyl)cyclopentanol]",0.005 to 250
8,"CC1(C)C(=O)Nc2cc(Nc3nc4cccc(CN5CCNC(=O)C5)n4n3)ccc21 [Example 172, 3,3-dimethyl-6-(5-((3-oxopiperazin-1-yl)methyl)-[1,2,4]triazolo[1,5-a]pyridin-2-ylamino)indolin-2-one]",0.005 to 250
9,"Oc1ccc(Nc2nc3cccc(-c4ccccc4)n3n2)cn1 [compound 70, 5-(5-phenyl-[1,2,4]triazolo[1,5-a]pyridin-2-ylamino)pyridine-2-ol]",1000 to 10000
